Results as given in patent publication US20220186190A1, “MODELING ONCOLOGY ON DEMAND” (The Board of Trustees of the University of Illinois, priority 2019, published 2022).

Columns and labels:
HepG2 = assay: MTT chemotherapeutic screening, human HCC cell line HepG2; type: cell-based; details: 72 hours exposure
Protocol: (§1) Cells (1×1O^4 cells/well) were cultured in 200 ? DMEM+10% FBS overnight in 96 well plates. The following day, culture media was replaced with fresh media supplemented with one of 10 varying concentrations of each chemotherapeutic compound. Sorafenib, doxorubicin, mitomycin C, and 5-Fluorouracil (5-FU) were prepared from a stock solution in a 10-point serial dilution curve, in DMSO, and added at 1:100 to culture media (final concentration of DMSO was 1% for all conditions). As platinum complexes are inactivated by DMSO, cisplatin stock solution was 3.33 mM in water and the stock was used to prepare all dilutions. Sorafenib and mitomycin C were tested from 0.5-100 μM, doxorubicin from 0.1-20 μM, cisplatin from 1-200 μM, and 5-FU from 1-500 μM in order to assay concentrations that are relevant for clinically used dosages and that allow for calculation of the half maximal inhibitory concentration (IC50) for each compound. 96 well plates with each cell line and chemotherapeutic concentration in triplicate were prepared for time points 0, 24, 48, and 72 hours to observe a dose response overtime. For the 3-(4,5-dimethylthiazol-2-yl)-2,5-diphenyltetrazolium bromide (MTT) assay, 100 ? of fresh media was replaced at each time point, 10 ? of 5 mg/ml MTT added to each well and incubated for 4 hours at 37° C. 100 ? for an SDS/HCl solution (1 g SDS/10 ml 0.1 HCl) was then added to solubilize the resulting formazan dye and the plates incubated an additional 4 h at 37° C. Absorbance at 570 nm was read using a BioTek 800 TS Absorbance Reader (BioTek). Results are expressed in percentage, relative to the absorbance values for each cell line at time 0.
(§2) OCM and human HCC cell lines display similar sensitivities to four FDA approved cytostatic (sorafenib) and cytotoxic (doxorubicin, cisplatin, mitomycin C) chemotherapeutic agents used to treat HCC clinically, either systemically or via transarterial chemoembolization (TACE), and one shown to be ineffective (5-FU) in clinical settings.

Hepal-6 = assay: MTT chemotherapeutic screening, murine HCC cell line Hepal-6; type: cell-based; details: for IC50: Hepal-6, MTT, 72 hours exposure
Protocol: as §1, §2

OCM HCC cell lines = assay: MTT chemotherapeutic screening, OCM HCC cell line; type: cell-based, pig; details: 72 hours exposure
Protocol: as §1, §2

[1] = tested on: Oncopig soft tissue sarcoma tumor cells; assay: In vitro partitioning and conversion of DON prodrugs to DON in Oncopig soft tissue sarcoma tumor cells; type: in vitro ADME, pig; details: FIGS. 12A-12D
Text: FIGS. 12A-12D are graphs showing in vitro partitioning and conversion of 6-diazo-5-oxo-1-norleucine (DON) prodrugs to DON in Oncopig soft tissue sarcoma tumor cells vs. plasma. […] However, when delivered as a prodrug (FIGS. 12B-12D), the level of active compound (DON, y-axis) is much higher in the cells than the cell supernatant.
(§3) OCM soft-tissue sarcoma cell lines were used to assess tumor cell specific uptake and conversion of 6-Diazo-5 -oxo-1-norleucine (DON) prodrugs. […] In addition, in vivo investigation of tumor specific uptake and temporal PK of systemically administered prodrugs in Oncopigs bearing SQ soft-tissue sarcomas validated the capability to employ the tumor-bearing OCM for chemotherapy drug pharmacologic studies (FIGS. 13A and 13B and Table 8).

[2] = In vivo PK and tumor specific uptake of systemically administered DON prodrugs in Oncopigs bearing SQ soft-tissue sarcomas; set-up: species or system pig; details: for AUC / Cmax: systemically administered prodrug
Text: as §3

Structure (SMILES) | IC50 (HepG2; Homo sapiens) [nM] | IC50 (Hepal-6; Mus musculus) [nM] | IC50 (OCM HCC cell lines; Sus scrofa) [nM] | IC50 (HepG2) [nM] | IC50 (Hepal-6) [nM] | IC50 (OCM HCC cell lines) [nM] | other results
O=c1[nH]cc(F)c(=O)[nH]1 [5-FU, 5-Fluorouracil] | 18300 | 1820 | 14500 |  |  |  | higher susceptibility of murine HCC lines versus OCM and human lines (Hepal-6; Hepal-6 compared with OCM and human HCC lines): 10 fold
N.N.[Cl][Pt][Cl] [Cisplatin, cisplatin] |  |  |  | 5600 | 2160 | 5380 | 
[N-]=[N+]=CC(=O)CC[C@H](N)C(=O)O [DON, 6-diazo-5-oxo-1-norleucine] |  |  |  |  |  |  | level of DON in cells vs. cell supernatant [1]: high levels are observed in the cell supernatant, with small amounts entering the cells; Tumor:Plasma AUC ratio [2]: 1.5; selective in vivo partitioning (tumor vs. plasma) ([2]; FIGS. 13A and 13B): selective in vivo partitioning of DON to tumor cells; AUC ([2]; Plasma): 2852 h*pmol/ml or g; Cmax ([2]; Plasma): 530 pmol/ml or g; AUC ([2]; Tumor): 4238 h*pmol/ml or g; Cmax ([2]; Tumor): 1019 pmol/ml or g
COc1cccc2c1C(=O)c1c(O)c3c(c(O)c1C2=O)C[C@@](O)(C(=O)CO)C[C@@H]3O[C@H]1C[C@H](N)[C@H](O)[C@H](C)O1 [Doxorubicin, doxorubicin] | 230 | 530 | 80 |  |  |  | 
CO[C@@]12[C@H](COC(N)=O)C3=C(C(=O)C(C)=C(N)C3=O)N1C[C@@H]1N[C@@H]12 [Mitomycin C, mitomycin C] |  |  |  | 570 | 610 | 480 | 
CNC(=O)c1cc(Oc2ccc(NC(=O)Nc3ccc(Cl)c(C(F)(F)F)c3)cc2)ccn1 [Sorafenib] | 8860 | 4980 | 10400 |  |  |  | 
